Data reported in a melting point compilation (Tetko et al.).

SMILES | melting point
OOC1CCCc2ccccc21 (configuration not stated) | 56 °C
Cc1ccc(C=C(C#N)C#N)cc1 | 132 to 133 °C
CCc1ccc([N+](=O)[O-])cc1 | -12 °C
Cc1cc(Oc2ccc(N)cn2)cc(C)c1Cl | 96 to 98 °C
N#CSC#N | 63.5 °C
Cc1ccc(C)c([N+](=O)[O-])c1 | -25 °C
Clc1cc(Cl)c2nsnc2c1Cl | 122 °C
O=S1OCCO1 | -11 °C
CCOC(=O)C(=O)C(C#N)C(=O)OCC (configuration not stated) | 88 to 90 °C
O=C(O)CCCCC1CCSS1 (configuration not stated) | 60.5 °C
N#Cc1c(F)c(F)cc(F)c1F | 34 °C
CCS(=O)(=O)c1nnc(N(C)C(=O)NC)s1 | 156 °C
C=CCN=C=S | -80 °C
CCCCCCCOO | 35.5 °C
COC1(OC)C2C=C3OC(=O)C1C3(C)O2 (configuration not stated) | 199 to 201 °C
CC(C)(C)CC(=O)OCC(=O)C1(O)CCC2C3CCC4=CC(=O)CCC4(C)C3C(O)CC21C (configuration not stated) | 168 °C
O=C(Cl)c1ccc(CCl)cc1 | 29 to 33 °C
COC(=O)C12ON1c1ccccc1C2=O (configuration not stated) | 221 °C
Cc1[nH]nc(C(F)(F)C(F)(F)C(F)(F)F)c1[N+](=O)[O-] | 97 to 98 °C
N#CCc1ccc(C(F)(F)F)cc1[N+](=O)[O-] | 40 °C
NC(=O)CC[C@H](NC(=O)C(F)(F)F)C(=O)O | 146 to 150 °C
OC(CCN1CCCCC1)(c1ccccc1)C1CC2C=CC1C2 (configuration not stated) | 114 °C
Cc1ccc(S(=O)(=O)N2C(C)C2c2ccccc2)cc1 (configuration not stated) | 188 to 190 °C
COc1cc(N)c(C(c2ccc(C)o2)c2ccc(C)o2)cc1OC | 79 °C

SMILES | melting point
NNCCO | -70 °C
CCC(=O)OC1CCC2(C)C(=CCC3C2CCC2(C)C(OC(=O)CC)CCC32)C1 (configuration not stated) | 113 °C
CCOc1nc(NC)nc(NC(=O)NS(=O)(=O)c2ccccc2C(=O)OC)n1 | 194 °C
Nc1ccccc1F | -29 °C
NCCc1ccc(-c2ccccc2)cc1 | 53 to 55 °C
Cc1ccc(S(C)(=O)=O)cc1[N+](=O)[O-] | 121 °C
O=[N+]([O-])c1ccccc1CBr | 47 °C
Cc1nccc(O)c1OCc1ccc(Cl)cc1Cl | 218 to 222 °C
N#CC(C#N)=Nc1ccccc1 | 86 to 87 °C
ON=Cc1ccccc1Cl | 72 to 77 °C
OC1CSC(O)CS1 (configuration not stated) | 108 to 145 °C
O=Cc1ccccc1OCCN1CCOCC1 | 43 to 45 °C
CC(=O)OC1CC[C@@]2(C)C(CC[C@@H]3[C@@H]2CC[C@@]2(C)[C@H]3CC[C@@]2(C#Cc2ccccc2)OC(C)=O)C1 (some centres not stated) | 166 °C
CCOC(OCC)C(N)=S | 91 to 94 °C
O=C(O)C1CCNCC1 | 336 °C
CCCOCC(C)OCC(C)O (configuration not stated) | 7.08 °C
CC(=O)CC(c1ccc(Cl)cc1)c1c(O)c2ccccc2oc1=O (configuration not stated) | 170 °C
Cc1cnccc1N | 108 °C
S=C=Nc1cc(Cl)cc(Cl)c1 | 46 °C
CC(C=CC=C(C)C=CC1=C(C)CCCC1(C)C)=CC=CC=C(C)C=CC=C(C)C=CC1=C(C)CC(O)CC1(C)C (configuration not stated) | 160 °C
c1ccc2nonc2c1 | 54 °C
CCOC(=O)c1cc(C)nc(Cl)n1 | 56.5 to 59 °C
CCCCOC(=O)C(C)O (configuration not stated) | -28 °C
S=c1sccs1 | 49 °C

SMILES | melting point
O=C1C(=Cc2ccccc2)SC(=S)N1CN1CCCCC1 | 114 °C
CC(=O)[C@H]1CC[C@H]2[C@@H]3CC=C4C[C@@H](OC(=O)CCC(=O)O)CC[C@]4(C)[C@H]3CC[C@]12C | 180 °C
CCC(=O)N(C)C | -45 °C
OCCN1CCN(CCO)CC1 | 135 °C
C=C1c2cc(OC)c(OC)cc2CCN1C(C)=O | 107 to 109 °C
Nc1cc(Br)cnc1Cl | 131 °C
COC(=O)c1cc2cc3cc(C(=O)OC)c(C(=O)OC)cc3cc2cc1C(=O)OC | 220 °C
N#CC(=Cc1ccc(O)cc1)C(=O)O | 250 to 253 °C
Cc1nc(Cl)c(C#N)c(C)c1Cl | 82 to 83 °C
CN1CCOc2cc(Br)cnc21 | 77 to 79 °C
CN(C)C(=O)NC1CC2CC1C1CCCC21 (configuration not stated) | 177 °C
O[C@@H]1C#CCCCCC#C[C@@H](O)CC1 | 154 °C
COc1cccc(CNC(N)=S)c1 | 91 to 93 °C
O=C1OC(=O)C2=C1SCCS2 | 213 to 214 °C
COc1cc(N=C=S)c(C(c2ccc(C)o2)c2ccc(C)o2)cc1OC | 91 °C
c1ccc2c(-c3nnc(-c4cccc5ccccc45)o3)cccc2c1 | 177 °C
CC(CCl)(CCl)C(=O)O | 64 to 66 °C
C1CCN2CC3CC(CN4CCCCC34)C2C1 (configuration not stated) | 30.5 °C
NCCCCCCCCCCC(=O)O | 191 °C
CC1=CC(=O)OC2(C1)CC1CCC2CN1C (configuration not stated) | 54.5 °C
Cc1cc(O)c(C)c(O)c1 | 161 to 164 °C
CCN(CC)C(=O)C(Cl)(Cl)Cl | 27 °C
CCSC(C)C | -122 °C

Other lines, results leading:

melting point | SMILES
300 °C | NC(CCc1ccccc1)C(=O)O (single isomer, unassigned; (-))
186 to 187 °C | Cn1nc(-c2ccccc2)cc1C(=O)O
119 °C | CCCC(=O)Nc1ccc(OCC(O)CNC(C)C)c(C(C)=O)c1 (configuration not stated)
201 °C | CC(=Nn1c(S)nnc1C(F)(F)F)c1ccc(C)cc1
147 to 154 °C | O=C1C(=Cc2ccc(F)cc2)CCCC1=Cc1ccc(F)cc1
141 °C | O=c1ccoc2ccc(Br)cc12
197 °C | O=C(O)Cc1nn(Cc2nc3cc(C(F)(F)F)ccc3s2)c(=O)c2ccccc12
195 °C | Nc1c(Br)cc(Br)cc1Cc1ccccc1
256 °C | Cc1cccc(C)c1NC(=O)c1cc(S(N)(=O)=O)c(Cl)cc1O
174 °C | O=C(C1=NOC2C(=O)N(c3ccccc3)C(=O)C12)c1cccs1 (configuration not stated)
77 °C | COC(=O)c1ccc2ccccc2c1
-3.5 °C | O=Cc1ccccc1O
158 °C | NC(=O)/C(=N\Nc1ccc(F)cc1)c1nc2ccccc2s1
94 to 98 °C | O=C(c1ccc(C(F)(F)F)cc1)c1cccc(C(F)(F)F)c1
134 to 137 °C | CC(C)(C(=O)O)C(O)c1ccccc1 (configuration not stated)
313 to 315 °C | Cc1n[nH]c2c(=O)n(-c3ccc(Cl)cc3)c(C)nc12
75 to 78 °C | NCc1ccc(-n2cccn2)cc1
46 °C | COc1ccc2c(c1)N(CCCN(C)C)c1ccccc1S2
44 °C | O=C(C=Cc1ccccc1)OCC=Cc1ccccc1
200 to 202 °C | CC(=O)Nc1ccsc1C(=O)O
135 to 137 °C | CC(=O)c1c(C)c(C(=O)O)n(C)c1C

melting point | SMILES
157 to 159 °C | O=C(O)[C@@H](O)CCN1C(=O)c2ccccc2C1=O
205 to 206 °C | O=C(O)c1scc2c1OCCO2
114 to 115 °C | CCCCCCCCCCOc1ccc(/C=N/c2ccc(/C=C/C(=O)OCC)cc2)cc1
88 °C | COC(=O)C1Cc2ccccc2C(=O)C1C(=O)OC (configuration not stated)
108 to 111 °C | CC1(C)N=C(c2ccccc2)C=[N+]1[O-]
152 to 159 °C | CCOC(=O)C1=C(C)OC(N)=C(C#N)C1c1ccc(N2CCOCC2)cc1 (configuration not stated)
210 °C | O=c1c2ccccc2nc2n1CCC2O (configuration not stated)
269 to 270 °C | CCOC(=O)c1cn[nH]c1NC(=O)Nc1ccc(Cl)c(Cl)c1
62 °C | Cc1ccccc1NC=O
119 °C | Cc1cc(C=O)ccc1O
166 to 167 °C | C1=C(c2ccccc2)Cc2ccccc21
87 °C | Cc1cc2ccccc2c(-c2ccccc2)n1
294 °C | Cc1ccccc1Nc1[nH]c(=S)nnc1-c1ccccc1
211 °C | Cc1cc2c(cc1C)C(=O)c1ccccc1C2=O
148 °C | O=C(C=CN(O)c1ccccc1)c1ccc2c(c1)CCCC2
124 °C | CC(C(=O)O)c1ccc(C(=O)c2cccs2)cc1 (configuration not stated)
81 °C | Cn1ccc2ccc(C=O)cc21
61 to 62 °C | N#Cc1ccccc1N=C=O
139 to 143 °C | COC(=O)c1ccc2[nH]cnc2c1
193 °C | Oc1ccc2ccc(O)cc2c1
160 °C | COc1ccc(C2Nn3c(nnc3-c3ccccc3)S2)cc1 (configuration not stated)

melting point | SMILES
130 to 131 °C | CCc1ccc(O)c(C(C)=O)c1O
155 °C | Clc1ccc(C=NC2Nc3ccccc3N2)cc1
63 to 64 °C | CC(C)Cc1ccc(C(=O)C(C)Br)cc1 (configuration not stated)
192 to 196 °C | Cn1c(=O)[nH]c2ccccc21
74 °C | CC(=O)c1c2ccccc2cc2ccccc12
151 to 152 °C | CC(Nc1ccccn1)=C(C#N)C(=O)c1ccccc1
197 °C | O=C(Oc1ccc(Cl)cc1)c1ccc(C(=O)Oc2ccc(Cl)cc2)cc1
251 to 252 °C | CCOC(=O)C(C#N)=C(N)c1cc2cccc(OC)c2oc1=O
151 to 152 °C | O=C1C2ON(c3ccccc3)C(c3ccccc3)C2C(=O)N1c1ccccc1 (configuration not stated)
82.5 °C | O=C(C(=O)c1cccs1)c1cccs1
67 to 70 °C | Cn1ccc(-c2ccc(N=C=O)cc2)n1
104 °C | CCCCC(C(=O)O)C(=O)O
110 °C | CC(C)(C)C1=NN(c2ccccc2)C(=O)C1
51 to 52 °C | O=Cc1csc(-c2ccccc2)n1
103 to 105 °C | N#C/C(=C/c1ccc(Cl)cc1)c1nc(-c2ccccc2)cs1
147 °C | Cc1ccc(S(=O)(=O)N/N=C2\C=CC(C)(c3ccccc3)CC2)cc1 (configuration not stated)
229 °C | O=C(Oc1c(-c2ccccc2)[nH]c2cc([N+](=O)[O-])ccc12)c1ccccc1
114 °C | COC(=O)C1(S(=O)(=O)c2ccccc2)CCCCC1
-3 °C | c1ccc(CCc2ccccn2)cc1
